Like-named read-outs stand apart in the source and are kept apart here.
Key:
[1] = molecular target: EGFR in Baf3-19del-T790M-C797S (Homo sapiens, UniProt P00533, C797S/DEL746-750/T790M); test: EGFR PROTAC HTRF experiment (total EGFR degradation); assay type: cell-based
Protocol: (§1) [table] Among them, B[…] -C797S (abbreviated as Baf3-DTC) is a stable Ba/F3 clone expressing exogenous EGFR gene bearing T790M, C797S and […] triple amino acid mutations, purchased from KYinno; Baf3-L858R-T790M - C797S (abbreviated as Baf3-LTC) is a stable Ba/F3 clone expressing exogenous EGFR gene bearing […], T790M, C797S triple mutations, purchased from KYinno. [table] [table] Dilutded Eu and d2 antibodies 2μl per well with detection buffer 20-fold. Then mixed the two antibody vials thoroughly. [table] Opened EnVision , locate the HTRF program, configured the board, and then read […]. The fitted curve, DC50 and Dmax of this compound could be generated using GraphPad Prism .

[2] = molecular target: EGFR in Baf3-L858R-T790M-C797S (Homo sapiens, UniProt P00533, C797S/L858R/T790M); test: as above; assay type: cell-based
Sequence of EGFR in Baf3-L858R-T790M-C797S (P00533 25-1210 T790M/C797S/L858R): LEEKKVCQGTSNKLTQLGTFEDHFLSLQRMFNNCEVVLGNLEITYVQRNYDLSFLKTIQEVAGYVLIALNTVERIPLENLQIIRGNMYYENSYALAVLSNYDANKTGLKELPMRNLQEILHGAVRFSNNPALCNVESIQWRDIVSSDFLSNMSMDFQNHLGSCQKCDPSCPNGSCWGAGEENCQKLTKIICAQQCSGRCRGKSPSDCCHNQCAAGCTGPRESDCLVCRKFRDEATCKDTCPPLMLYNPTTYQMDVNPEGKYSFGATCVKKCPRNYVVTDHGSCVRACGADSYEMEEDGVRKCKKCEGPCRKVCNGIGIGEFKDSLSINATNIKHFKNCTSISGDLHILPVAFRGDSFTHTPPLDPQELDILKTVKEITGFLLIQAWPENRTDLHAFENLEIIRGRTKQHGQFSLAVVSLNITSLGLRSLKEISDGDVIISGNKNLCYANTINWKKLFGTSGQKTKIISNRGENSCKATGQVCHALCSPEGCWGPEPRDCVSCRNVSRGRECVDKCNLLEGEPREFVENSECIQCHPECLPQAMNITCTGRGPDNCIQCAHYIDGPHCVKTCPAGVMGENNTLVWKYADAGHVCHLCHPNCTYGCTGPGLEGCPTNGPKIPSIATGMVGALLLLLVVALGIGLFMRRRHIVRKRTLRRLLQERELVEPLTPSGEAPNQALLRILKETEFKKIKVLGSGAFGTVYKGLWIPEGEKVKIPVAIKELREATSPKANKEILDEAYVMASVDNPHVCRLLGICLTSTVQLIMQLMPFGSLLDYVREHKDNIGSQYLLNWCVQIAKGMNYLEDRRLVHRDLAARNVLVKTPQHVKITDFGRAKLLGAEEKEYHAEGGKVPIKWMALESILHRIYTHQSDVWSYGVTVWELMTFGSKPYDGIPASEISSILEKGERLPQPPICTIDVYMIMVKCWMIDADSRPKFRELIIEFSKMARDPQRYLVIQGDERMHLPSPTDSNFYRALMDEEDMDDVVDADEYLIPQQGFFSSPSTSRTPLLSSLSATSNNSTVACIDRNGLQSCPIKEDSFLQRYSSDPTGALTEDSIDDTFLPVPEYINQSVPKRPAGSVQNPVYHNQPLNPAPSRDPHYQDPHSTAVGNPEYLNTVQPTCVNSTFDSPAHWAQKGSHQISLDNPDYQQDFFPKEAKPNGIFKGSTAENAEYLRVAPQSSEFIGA
Protocol: as §1

A549 = test: Cell anti-proliferation experiment (CTG); assay type: cell-based; settings: Homo sapiens, A549 (wild-type EGFR), class symbol
Procedure, shortened: (§2)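 Cells were seeded at 1500–2500/well and dosed after ~24 h with compound in a 1:4 dilution series up to 10,000 nM, in triplicate. Viability was read by CTG luminescence after 72 h, normalized to the 0.1% DMSO control and medium blank, and IC50 was obtained by curve fitting.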

HCC827 = test: Cell anti-proliferation experiment (CTG); assay type: cell-based; settings: Homo sapiens, HCC827 (exon 19 deletion), class symbol
Procedure, shortened: as §2

PC-9 = test: Cell anti-proliferation experiment (CTG); assay type: cell-based; settings: Homo sapiens, PC-9 (EGFR exon 19 deletion), class symbol
Procedure, shortened: (§3)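 PC-9 (EGFR exon 19 del), H1975 (T790M/L858R), A431 (wild-type EGFR) and a Ba/F3 clone stably expressing mutant EGFR were seeded at 1500-2500 cells/well, left 24 h, then treated in triplicate with 1:4 dilutions up to 10,000 nM for 72 h. CTG luminescence was normalised to 0.1% DMSO and blank medium; IC50 from curve fit.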

A431 = test: Cell anti-proliferation experiment (CTG); assay type: cell-based; settings: Homo sapiens, A431 (wild-type EGFR), class symbol
Procedure, shortened: as §3

H1975 = test: Cell anti-proliferation experiment (CTG); assay type: cell-based; settings: Homo sapiens, H1975 (EGFR T790M/L858R), class symbol
Procedure, shortened: as §3

[3] = Pharmacokinetic test of CD-1 mice; assay type: in vivo; set-up: AUC(0-t) / AUC(0-inf): concentration or dose not given beside the values; settings: male CD-1 mice, single oral gavage (PO), plasma; for AUC(0-inf) / AUC(0-t) / Cmax / MRT last / Tmax: mouse
Protocol: Plasma was collected from male CD-1 mice after a single gavage administration of the test substance. The plasma was then analyzed to calculate pharmacokinetic parameters.
The solvent is 5% DMSO + 10% Solutol HS-15 + 85% Saline.
Formulation preparation process: Accurately weighed the compound powder, added appropriate volumes of DMSO, Solutol and physiological saline in sequence, and vortexed sonicate at each step to finally form a homogeneous formulation solution.
Experimental animals were housed in the SPF-grade animal facility of Suzhou Xihua New Drug Development Co., Ltd. (License No.: SYXK(Su)2021-0019). Animals were fed normally for at least 3 days after purchase before the experiment, and each mouse was marked with a tail tag. Animals in the oral administration group were fasted overnight the day before administration, and were resumed feeding 4 hours later, with free access to water. Table 4. Sources and Number of Experimental Animals […]
Before administration, checked the state of the administration formulation and ensured its homogeneity by vortexing, stirring or shaking. Calculated the theoretical administration volume for each CD-1 mouse in each group according to the following formula. Theoretical administration volume (mL); = (Dose (mg⋅kg^−1))/(formulation concentration (mg⋅mL^−1)) × animal body weight (kg) [formula]
Table 5 Sample Collection Information
The collected blood was placed in test tubes containing the anticoagulant EDTA-K2 (15 % EDTA-K2 solution), stored on moist ice, and centrifuged within 45 min (1,500 g, 2-8 °C, 10 min). Plasma was then collected. The plasma was stored in pre-chilled centrifuge tubes, flash-frozen on dry ice, and subsequently stored in an ultra-low temperature freezer at -60 °C or lower until shipment.
(§4) A quantitative detection method for the analyte was established using Shimadzu liquid chromatography and Triple Quad™ 6500+AB mass spectrometry. The concentration of the parent drug in plasma was analyzed. The analytical results were controlled for variation using quality control samples, with the accuracy of the quality control samples expected to be between 80% and 120%.
(§5) The main pharmacokinetic parameters were calculated using a non-compartmental model in Winnonlin Phoenix software. These parameters included the area under the curve (AUC(0-t) and AUC(0-∞)), elimination half-life (T1/2), maximum plasma concentration (Cmax ), and time to reach maximum plasma concentration (Tmax).

[4] = test system: Baf3-L858R-T790M - C797S (Baf3-LTC); test: Cell anti-proliferation experiment (CTG); assay type: cell-based; settings: class symbol
Procedure, shortened: as §3

[5] = test system: Baf3-19del- T790M -C797S (Baf3-DTC); test: Cell anti-proliferation experiment (CTG); assay type: cell-based; settings: class symbol
Procedure, shortened: as §3

[6] = Pharmacokinetic tests in male SD rats; assay type: in vivo; settings: oral gavage (po), 10 mg/kg, plasma; for AUC(0-inf) / AUC(0-t) / Cmax / MRT last / Tmax: rat
Protocol: Three healthy adult male SD rats, 6-8 weeks old, weighing 200-300 grams.
EDTA-Na2 anticoagulant, weighed 11.2 g EDTA-Na2 and placed it in a reagent bottle. Added 100 mL physiological saline and shaked to dissolve completely. After preparation, dispensed into 1.5 mL centrifuge tubes, each containing approximately 20 µL, for whole blood sample collection.
Accurately weighed approximately 10 mg the sample to be tested, added 10% of the converted total volume of DMSO to dissolve it, and then slowly added 90% of the total volume of 0.5% MC solvent while stirring. Sonicated and vortex to mix thoroughly to obtain a solution of the preparation that is considered to be homogeneous, with a concentration of 1 mg/mL. Prepared fresh immediately before use.
Piped 0.2 mL the sample into a 1.5 mL centrifuge tube and store at -80°C for analysis of the concentration of the drug solution.
Animals were housed in rat cages and fasted for at least 10 hours starting the day before the experiment, but water was allowed. On the day of the experiment, each animal was weighed and marked on its tail. Blank blood samples were collected before drug administration. Blood was collected via tail vein.
• Route of administration: Oral gavage (po); • Dosage concentration: 1 mg/ml; • Dosage: 10 mg/kg; • Dosage volume: 10 mL/kg; • Procedure: Hold the rat upright with your left hand wearing a bite-proof glove, insert the gavage needle into the throat through the mouth, and insert the needle when feeling no obvious resistance. Then inject the drug into the stomach.
Whole blood (0.1-0.2 ml) was collected from test animals at 0.5 h, 1 h, 2 h, 4 h, 6 h, 8 h, 12 h, and 24 h after drug administration. The samples were placed in EDTA-Na 2 anticoagulant tubes, inverted 3-4 times to mix, and centrifuged at 4°C, 2000 g for 5 min to separate the supernatant plasma. The plasma was promptly transferred to -80°C for storage until analysis. Blood was collected via tail vein.
as §4
as §5, with “(Tmax).The results are shown in Table 3.” for “(Tmax).”

[7] = read-out: Baf3-DTC DC50; Baf3-DTC, incubated 16 hours, HTRF total EGFR
[8] = read-out: Baf3-LTC DC50; Baf3-LTC, incubated 16 hours, HTRF total EGFR
[9] = Baf3-DTC, incubated 16 hours, HTRF total EGFR; read-out: Baf3-DTC DC50
[10] = Baf3-DTC, incubated 16 hours, HTRF total EGFR; read-out: Baf3-DTC Dmax
[11] = Baf3-LTC, incubated 16 hours, HTRF total EGFR; read-out: Baf3-LTC DC50
[12] = Baf3-LTC, incubated 16 hours, HTRF total EGFR; read-out: Baf3-LTC Dmax

Sequence of EGFR in Baf3-19del-T790M-C797S (P00533 with tags, fused parts or gaps DEL746-750/T790M/C797S): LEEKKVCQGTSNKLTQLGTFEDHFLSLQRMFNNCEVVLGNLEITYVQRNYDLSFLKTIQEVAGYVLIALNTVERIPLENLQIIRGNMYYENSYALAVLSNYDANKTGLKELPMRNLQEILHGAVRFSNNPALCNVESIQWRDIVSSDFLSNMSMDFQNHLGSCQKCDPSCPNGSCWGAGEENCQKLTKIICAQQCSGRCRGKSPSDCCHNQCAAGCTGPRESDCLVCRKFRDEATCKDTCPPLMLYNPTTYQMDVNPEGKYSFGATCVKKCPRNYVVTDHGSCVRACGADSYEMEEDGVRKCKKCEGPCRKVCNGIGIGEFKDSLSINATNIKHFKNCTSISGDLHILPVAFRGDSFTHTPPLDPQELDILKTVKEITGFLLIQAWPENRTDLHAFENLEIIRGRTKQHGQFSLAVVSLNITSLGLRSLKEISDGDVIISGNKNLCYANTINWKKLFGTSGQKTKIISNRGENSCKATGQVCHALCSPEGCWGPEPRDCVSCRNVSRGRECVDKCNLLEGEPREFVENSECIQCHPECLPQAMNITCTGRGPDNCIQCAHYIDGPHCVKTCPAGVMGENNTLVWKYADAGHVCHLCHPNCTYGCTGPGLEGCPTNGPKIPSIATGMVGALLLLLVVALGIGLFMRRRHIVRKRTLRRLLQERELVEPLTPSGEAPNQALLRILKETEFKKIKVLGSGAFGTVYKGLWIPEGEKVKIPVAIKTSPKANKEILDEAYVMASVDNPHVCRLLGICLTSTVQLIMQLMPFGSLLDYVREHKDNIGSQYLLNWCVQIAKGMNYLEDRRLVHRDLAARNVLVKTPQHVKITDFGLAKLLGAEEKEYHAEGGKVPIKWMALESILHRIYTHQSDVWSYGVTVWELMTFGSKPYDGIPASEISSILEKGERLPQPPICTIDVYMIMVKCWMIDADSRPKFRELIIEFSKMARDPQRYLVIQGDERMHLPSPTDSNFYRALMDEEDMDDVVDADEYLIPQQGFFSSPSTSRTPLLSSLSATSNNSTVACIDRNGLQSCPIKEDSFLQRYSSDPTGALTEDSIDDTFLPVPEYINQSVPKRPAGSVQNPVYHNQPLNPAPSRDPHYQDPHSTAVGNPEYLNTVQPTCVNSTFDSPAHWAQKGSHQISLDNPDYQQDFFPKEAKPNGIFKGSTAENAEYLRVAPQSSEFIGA

Structure (SMILES)	DC50 [1, 7] [nM]	Dmax ([1]; read-out: Baf3-DTC Dmax) [%]	DC50 [2, 8] [nM]	HL_ [3] [h]	AUC(0-inf) [3] [ng·h/mL]	AUC(0-t) [3] [ng·h/mL]	Cmax [3] [ng/mL]	MRT last [3] [h]	Tmax [3] [h]	DC50 [1, 9] [nM]	Dmax [1, 10] [%]	DC50 [2, 11] [nM]	Dmax [2, 12] [%]	IC50 (A549; A549, 72 h) [nM]	IC50 (HCC827; HCC827, 72 h) [nM]	IC50 ([4]; 72 h) [nM]	IC50 (PC-9; PC-9, 72 h) [nM]	IC50 ([5]; 72 h) [nM]	IC50 (A431; A-431, 72 h) [nM]	IC50 (H1975; NCI-H1975, 72 h) [nM]	also measured
CCc1cc(Nc2ncc(Cl)c(Nc3ccccc3C(=O)NC)n2)c(OC)cc1N1CCN(C(=O)CN2CCC(c3ccc4c(N5CCC(=O)NC5=O)nn(C)c4c3)C(F)(F)C2)CC1 (centres unmarked) [Comparative Example 1-1, reference compound]	10 to 100	70 to 100	10 to 100	2.41	14300	14300	1740	6.06	2	–	–	–	–	–	–	–	–	–	–	–	Dmax ([2]; read-out: Baf3-LTC Dmax): 70 to 100%; IC50 (A549; 72 hours): 10 to 100 nM; IC50 (HCC827; 72 hours): 100 to 1000 nM; IC50 (PC-9; 72 hours): 100 to 1000 nM; IC50 (A431; A-431, 72 hours): 100 to 1000 nM; IC50 (H1975; NCI-H1975, 72 hours): 10 to 100 nM
CCc1cc(Nc2ncc(Br)c(Nc3ccccc3C(=O)NC)n2)c(OC)cc1N1CCN(C(=O)CN2CCC(c3cc4c(cc3F)c(N3CCC(=O)NC3=O)nn4C)C(F)(F)C2)CC1 (centres unmarked) [TA-004]	–	–	–	2.67	28800	28800	3170	6.01	2	100 to 1000	70 to 100	100 to 1000	70 to 100	> 1000	> 1000	10 to 100	> 1000	10 to 100	> 1000	10 to 100	–
CCc1cc(Nc2ncc(Cl)c(Nc3ccccc3P(C)(C)=O)n2)c(OC)cc1N1CCN(C(=O)CN2CCC(c3cc4c(cc3F)c(N3CCC(=O)NC3=O)nn4C)C(F)(F)C2)CC1 (centres unmarked) [TA-005]	–	–	–	2.28	36300	36300	5970	4.59	1	–	–	–	–	–	–	–	–	–	–	–	–
CCc1cc(Nc2ncc(Br)c(Nc3ccccc3P3(=O)CCCC3)n2)c(OC)cc1N1CC2(CCN(C(=O)CN3CCC(c4cc5c(cc4F)c(N4CCC(=O)NC4=O)nn5C)C(F)(F)C3)CC2(F)F)C1 (centres unmarked) [TB-010]	–	–	–	–	–	–	–	–	–	< 10	70 to 100	< 10	70 to 100	> 1000	10 to 100	10 to 100	100 to 1000	10 to 100	> 1000	< 10	HL [6]: 3.59 h; AUC(0-inf) [6]: 5800 ng·h/mL; AUC(0-t) [6]: 5730 ng·h/mL; Cmax [6]: 482 ng/mL; MRT last [6]: 6.6 h; Tmax [6]: 4 h
CCc1cc(Nc2ncc(Br)c(Nc3ccccc3P(C)(C)=O)n2)c(OC)cc1N1CCN(C(=O)CN2CCC(c3cc4c(cc3F)c(N3CCC(=O)NC3=O)nn4C)C(F)(F)C2)CC1 (centres unmarked) [TC-158]	< 10	70 to 100	< 10	–	–	–	–	–	–	–	–	–	–	–	–	–	–	–	–	–	Dmax ([2]; read-out: Baf3-LTC Dmax): 70 to 100%; IC50 (A549; 72 hours): > 1000 nM; IC50 (HCC827; 72 hours): 100 to 1000 nM; IC50 ([4]; 72 hours): < 10 nM; IC50 (PC-9; 72 hours): 100 to 1000 nM; IC50 ([5]; 72 hours): < 10 nM; IC50 (A431; A-431, 72 hours): > 1000 nM; IC50 (H1975; NCI-H1975, 72 hours): 10 to 100 nM; HL [6]: 2.81 h; AUC(0-inf) [6]: 5610 ng·h/mL; AUC(0-t) [6]: 5590 ng·h/mL; Cmax [6]: 533 ng/mL; MRT last [6]: 6.02 h; Tmax [6]: 2.67 h
CCc1cc(Nc2ncc(Cl)c(Nc3ccccc3C(=O)NC)n2)c(OC)cc1N1CCN(CCN2CCC(c3cc4c(cc3F)c(N3CCC(=O)NC3=O)nn4C)CC2)CC1 [TD-001]	–	–	–	–	–	–	–	–	–	100 to 1000	50 to 70	10 to 100	50 to 70	10 to 100	< 10	10 to 100	100 to 1000	10 to 100	> 1000	< 10	–
